# Source: ChEMBL document CHEMBL1201862, “PubChem BioAssay data set” (2004)
#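 Following 48 hours of exposure in 96-well plates, responses at five concentrations were used to interpolate endpoints linearly. GI50 = concentration required for 50% inhibition of growth.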 Activity calls are given as the source filed them. Rule as the data show it: active = GI50 up to about 1.1 µM and inactive = higher.
# How the values were obtained:
# Test in all cases: growth of human tumour cells (NCI), 48 h
# [1] = tested on: 786-0
# [2] = tested on: A498
# [3] = tested on: A549
# [4] = tested on: ACHN
# [5] = tested on: BT-549
# [6] = tested on: CAKI-1
# [7] = tested on: CCRF-CEM
# [8] = tested on: COLO 205
# [9] = tested on: DU-145
# [10] = tested on: EKVX
# [11] = tested on: HCC 2998
# [12] = tested on: HCT-116
# [13] = tested on: HCT-15
# [14] = tested on: HL-60
# [15] = tested on: HOP-62
# [16] = tested on: HOP-92
# [17] = tested on: HT-29
# [18] = tested on: Hs-578T
# [19] = tested on: IGROV-1
# [20] = tested on: K562
# [21] = tested on: KM12
# [22] = tested on: LOX IMVI
# [23] = tested on: M14
# [24] = tested on: MCF7
# [25] = tested on: MDA-MB-231
# [26] = tested on: MDA-MB-435
# [27] = tested on: MDA-N
# [28] = tested on: MOLT-4
# [29] = tested on: Malme-3M
# [30] = tested on: NCI-H23
# [31] = tested on: NCI-H460
# [32] = tested on: NCI-H522
# [33] = tested on: NCI/ADR-RES
# [34] = tested on: OVCAR-3
# [35] = tested on: OVCAR-4
# [36] = tested on: OVCAR-5
# [37] = tested on: OVCAR-8
# [38] = tested on: PC-3
# [39] = tested on: RPMI-8226
# [40] = tested on: RXF 393
# [41] = tested on: SF-268
# [42] = tested on: SF-295
# [43] = tested on: SF-539
# [44] = tested on: SK-MEL-28
# [45] = tested on: SK-MEL-2
# [46] = tested on: SK-MEL-5
# [47] = tested on: SK-OV-3
# [48] = tested on: SN12C
# [49] = tested on: SNB-19
# [50] = tested on: SNB-75
# [51] = tested on: SR
# [52] = tested on: SW-620
# [53] = tested on: T47D
# [54] = tested on: TK-10
# [55] = tested on: U-251
# [56] = tested on: UACC-257
# [57] = tested on: UACC-62
# [58] = tested on: UO-31
smiles,measurement,setting,value
CN1CCc2cc3c(c4c2C1C(O)c1ccccc1-4)OCO3 (stereo not drawn),GI50,[1],6.21 µM (inactive)
same,GI50,[2],3.27 µM (inactive)
same,GI50,[3],3.89 µM (inactive)
same,GI50,[4],6.05 µM (inactive)
same,GI50,[5],3.86 µM (inactive)
same,GI50,[6],3.75 µM (inactive)
same,GI50,[7],2.41 µM (inactive)
same,GI50,[8],4.95 µM (inactive)
same,GI50,[9],9.73 µM (inactive)
same,GI50,[10],7.83 µM (inactive)
same,GI50,[11],8.91 µM (inactive)
same,GI50,[12],3.68 µM (inactive)
same,GI50,[13],3.59 µM
same,GI50,[14],2.23 µM (inactive)
same,GI50,[15],4.67 µM (inactive)
same,GI50,[16],2.16 µM (inactive)
same,GI50,[17],3.5 µM (inactive)
same,GI50,[18],3.19 µM (inactive)
same,GI50,[19],6.61 µM (inactive)
same,GI50,[20],4.57 µM (inactive)
same,GI50,[21],7.52 µM (inactive)
same,GI50,[22],4.25 µM (inactive)
same,GI50,[23],5.12 µM (inactive)
same,GI50,[24],4.31 µM (inactive)
same,GI50,[25],6.05 µM (inactive)
same,GI50,[26],6.12 µM (inactive)
same,GI50,[27],5.08 µM (inactive)
same,GI50,[28],2.98 µM (inactive)
same,GI50,[29],8 µM (inactive)
same,GI50,[30],12 µM (inactive)
same,GI50,[31],3.33 µM (inactive)
same,GI50,[32],2.93 µM (inactive)
same,GI50,[33],6.47 µM (inactive)
same,GI50,[34],14.4 µM (inactive)
same,GI50,[35],6.04 µM (inactive)
same,GI50,[36],8.24 µM (inactive)
same,GI50,[37],7.53 µM (inactive)
same,GI50,[38],5.37 µM (inactive)
same,GI50,[39],7.01 µM (inactive)
same,GI50,[40],2.52 µM (inactive)
same,GI50,[41],6.3 µM (inactive)
same,GI50,[42],5.69 µM (inactive)
same,GI50,[43],4.72 µM (inactive)
same,GI50,[44],20.2 µM (inactive)
same,GI50,[45],9.59 µM (inactive)
same,GI50,[46],7.98 µM (inactive)
same,GI50,[47],21.4 µM (inactive)
same,GI50,[48],3.03 µM (inactive)
same,GI50,[49],10.6 µM (inactive)
same,GI50,[50],12.6 µM (inactive)
same,GI50,[51],4.6 µM (inactive)
same,GI50,[52],7.53 µM (inactive)
same,GI50,[53],13 µM (inactive)
same,GI50,[54],14.2 µM (inactive)
same,GI50,[55],6.07 µM (inactive)
same,GI50,[56],7.19 µM (inactive)
same,GI50,[57],8.22 µM (inactive)
same,GI50,[58],6.1 µM (inactive)
